IC50 data for two compounds are collected here from US20230391739A1, “ARYL DERIVATIVES FOR TREATING TRPM3 MEDIATED DISORDERS” (Katholieke Universiteit Leuven, priority 2020, published 2023).

This experiment has as its target T1, mouse TRPM3α2 (mTRPM3) ion channel (Mus musculus, UniProt J9SQF3).
T1 construct: expressed in transfected cells; host or cells: flip-in HEK293
Kind of experiment: TRPM3 ion channel driven Ca2+ uptake, Fluo-4 AM assay, PS-stimulated (mTRPM3). It counts as cell-based. To be noted: TRPM3 overexpressing flip-in HEK293 cells stimulated with Pregnenolone sulfate (PS) 50 μM, activity ranges A, B, C. In outline: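 Ca²⁺ influx through mouse TRPM3α2, opened by 50 μM pregnenolone sulfate, was tracked with Fluo-4 AM in stably transfected HEK293 cells read directly after seeding onto pre-dispensed compound.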

SMILES strings stand for the structures.

T1 sequence (J9SQF3 1-1709 isoform J9SQF3-12): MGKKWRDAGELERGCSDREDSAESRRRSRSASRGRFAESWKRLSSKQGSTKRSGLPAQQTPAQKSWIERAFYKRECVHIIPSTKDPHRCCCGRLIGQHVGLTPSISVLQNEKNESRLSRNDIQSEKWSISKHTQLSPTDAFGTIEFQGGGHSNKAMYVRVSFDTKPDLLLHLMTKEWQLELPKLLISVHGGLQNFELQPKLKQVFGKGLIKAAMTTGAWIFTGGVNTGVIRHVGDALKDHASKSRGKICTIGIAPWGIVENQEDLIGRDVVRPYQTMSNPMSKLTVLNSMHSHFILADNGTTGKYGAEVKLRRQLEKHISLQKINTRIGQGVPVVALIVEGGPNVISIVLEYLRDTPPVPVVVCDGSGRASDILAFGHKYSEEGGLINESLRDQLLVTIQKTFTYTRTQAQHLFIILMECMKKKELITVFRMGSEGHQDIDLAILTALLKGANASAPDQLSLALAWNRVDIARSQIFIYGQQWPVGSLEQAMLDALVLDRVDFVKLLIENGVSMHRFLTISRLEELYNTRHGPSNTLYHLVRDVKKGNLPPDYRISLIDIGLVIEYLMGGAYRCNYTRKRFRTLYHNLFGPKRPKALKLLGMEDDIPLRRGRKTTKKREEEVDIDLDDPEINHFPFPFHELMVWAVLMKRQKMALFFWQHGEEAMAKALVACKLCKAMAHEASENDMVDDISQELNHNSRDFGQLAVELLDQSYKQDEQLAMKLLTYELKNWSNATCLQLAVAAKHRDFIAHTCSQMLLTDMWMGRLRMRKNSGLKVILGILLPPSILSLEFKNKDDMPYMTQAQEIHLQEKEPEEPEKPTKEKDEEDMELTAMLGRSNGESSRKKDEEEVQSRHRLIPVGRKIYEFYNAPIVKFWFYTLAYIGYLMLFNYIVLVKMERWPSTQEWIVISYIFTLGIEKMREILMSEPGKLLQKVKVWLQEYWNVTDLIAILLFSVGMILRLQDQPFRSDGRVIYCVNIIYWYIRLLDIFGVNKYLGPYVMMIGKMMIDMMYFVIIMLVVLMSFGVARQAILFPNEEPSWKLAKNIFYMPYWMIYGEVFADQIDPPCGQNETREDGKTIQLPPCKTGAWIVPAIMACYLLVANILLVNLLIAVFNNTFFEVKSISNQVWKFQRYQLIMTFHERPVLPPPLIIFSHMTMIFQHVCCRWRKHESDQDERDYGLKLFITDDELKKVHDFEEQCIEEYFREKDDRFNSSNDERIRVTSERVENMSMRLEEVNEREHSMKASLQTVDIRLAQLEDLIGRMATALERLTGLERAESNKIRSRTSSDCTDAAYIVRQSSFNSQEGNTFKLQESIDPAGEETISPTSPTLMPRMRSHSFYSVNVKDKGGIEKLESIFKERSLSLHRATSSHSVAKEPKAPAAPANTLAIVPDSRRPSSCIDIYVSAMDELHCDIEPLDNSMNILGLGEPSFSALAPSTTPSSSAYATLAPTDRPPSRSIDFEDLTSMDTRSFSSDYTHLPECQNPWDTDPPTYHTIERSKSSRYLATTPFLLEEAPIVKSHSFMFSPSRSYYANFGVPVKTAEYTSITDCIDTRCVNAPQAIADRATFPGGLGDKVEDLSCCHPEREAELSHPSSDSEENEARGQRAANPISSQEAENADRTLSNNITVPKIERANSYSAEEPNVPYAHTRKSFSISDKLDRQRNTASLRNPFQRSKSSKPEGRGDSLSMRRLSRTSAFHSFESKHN

A word on the IC50: it is the point on the concentration scale where inhibition reaches its midpoint. A low value points to inhibition by little substance. In turn, `Cc1oc2ccc(COc3ccccc3F)cc2c1C(=O)NC(C)(C)CO` [Cpd 319, 5-((2-fluorophenoxy)methyl)-N-(1-hydroxy-2-methylpropan-2-yl)-2-methylbenzofuran-3-carboxamide] had a concentration for half-maximal inhibition (IC50) of 1000 to 20000 nM.
In the case of `Cc1oc2ccc(OCc3ccccc3F)cc2c1C(=O)NC1(CO)CCNC1=O` (single isomer, unassigned) [Cpd 334-En 2] it was less than 1000 nM.
